Test results reported in the supplement of paper PMC6045584.
± gives the standard deviation of the averaged measurements.

Tests used:
CABOZANTINIB = compound: COc1cc2nccc(Oc3ccc(NC(=O)C4(C(=O)Nc5ccc(F)cc5)CC4)cc3)c2cc1OC [CABOZANTINIB]; test: surviving fraction relative to DMSO-only wells; higher = less growth inhibition; conditions: exposure time: 5 days
How it was run: (§1)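 Inhibitors were tested at 0.5, 1, 5, 10, 50, 100, 500 and 1000 nM, applied continuously for five days beginning 24 hours after log-phase tumour cells were seeded at 250–500 per well in 384-well plates. CellTiter-Glo luminescence served as the viability measure, expressed as surviving fraction against the median of DMSO-only wells. Each line, screened three times, was kept only with replicate Pearson r >0.7 and median Z' >0.3.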

BMN-673 = compound: Cn1ncnc1[C@H]1c2n[nH]c(=O)c3cc(F)cc(c23)N[C@@H]1c1ccc(F)cc1 [BMN-673]; test: as above; conditions: exposure time: 5 days
How it was run: as §1

Row | Test System | surviving fraction (CABOZANTINIB; 0.5 nM) | surviving fraction (CABOZANTINIB; 1 nM) | surviving fraction (CABOZANTINIB; 5 nM) | surviving fraction (CABOZANTINIB; 10 nM) | surviving fraction (CABOZANTINIB; 50 nM) | surviving fraction (CABOZANTINIB; 100 nM) | surviving fraction (CABOZANTINIB; 500 nM) | surviving fraction (CABOZANTINIB; 1000 nM) | surviving fraction (BMN-673; 0.5 nM) | surviving fraction (BMN-673; 1 nM) | surviving fraction (BMN-673; 5 nM) | surviving fraction (BMN-673; 10 nM) | surviving fraction (BMN-673; 50 nM) | surviving fraction (BMN-673; 100 nM) | surviving fraction (BMN-673; 500 nM) | surviving fraction (BMN-673; 1000 nM)
1 | 22RV1 PROSTATE | 0.946 ± 0.039 | 1.03 ± 0.018 | 0.992 ± 0.056 | 1 ± 0.13 | 1.03 ± 0.06 | 1.08 ± 0.15 | 1.07 ± 0.095 | 0.909 ± 0.18 | 1.06 ± 0.073 | 1.01 ± 0.11 | 0.871 ± 0.14 | 0.776 ± 0.18 | 0.657 ± 0.09 | 0.64 ± 0.037 | 0.468 ± 0.061 | 0.324 ± 0.048
2 | 93VU HEADNECK | 0.824 ± 0.084 | 0.841 ± 0.026 | 0.916 ± 0.028 | 1.01 ± 0.14 | 1.02 ± 0.084 | 0.967 ± 0.05 | 0.777 ± 0.042 | 0.71 ± 0.051 | 1.07 ± 0.071 | 1.14 ± 0.11 | 1.07 ± 0.14 | 0.983 ± 0.056 | 0.98 ± 0.084 | 0.925 ± 0.018 | 0.806 ± 0.087 | 0.632 ± 0.053
3 | 143B BONE | 1.07 ± 0.08 | 1.03 ± 0.023 | 1.02 ± 0.013 | 1.05 ± 0.02 | 1.01 ± 0.038 | 1.09 ± 0.059 | 1.048 ± 0.0092 | 1.06 ± 0.031 | 1.08 ± 0.047 | 1.11 ± 0.086 | 1.1 ± 0.054 | 1.09 ± 0.073 | 1.11 ± 0.16 | 1.05 ± 0.064 | 0.733 ± 0.06 | 0.528 ± 0.052
4 | A549 LUNG | 1.03 ± 0.016 | 0.976 ± 0.028 | 0.977 ± 0.022 | 0.98 ± 0.012 | 1.01 ± 0.02 | 1.01 ± 0.03 | 0.994 ± 0.021 | 0.97 ± 0.029 | 1.08 ± 0.026 | 1.1 ± 0.014 | 1.08 ± 0.033 | 1.07 ± 0.028 | 1.13 ± 0.08 | 1.1 ± 0.025 | 1.05 ± 0.043 | 0.972 ± 0.048
5 | ASKA SYNOVIAL | 1.09 ± 0.049 | 1.1 ± 0.062 | 1.13 ± 0.11 | 1.18 ± 0.029 | 1.08 ± 0.04 | 1.2 ± 0.03 | 1.1 ± 0.1 | 1.03 ± 0.029 | 0.846 ± 0.056 | 0.753 ± 0.041 | 0.625 ± 0.043 | 0.602 ± 0.024 | 0.54 ± 0.062 | 0.427 ± 0.036 | 0.342 ± 0.015 | 0.334 ± 0.016
6 | BT20 BREAST | 1.02 ± 0.047 | 1.09 ± 0.097 | 1.05 ± 0.069 | 1.2 ± 0.08 | 1.11 ± 0.012 | 1.19 ± 0.11 | 1.19 ± 0.1 | 1.17 ± 0.18 | 1.22 ± 0.014 | 1.15 ± 0.11 | 1.04 ± 0.034 | 0.971 ± 0.052 | 0.88 ± 0.035 | 0.797 ± 0.074 | 0.673 ± 0.13 | 0.474 ± 0.08
7 | BT549 BREAST | 1.05 ± 0.047 | 1.02 ± 0.024 | 1.07 ± 0.034 | 1.02 ± 0.2 | 1.22 ± 0.017 | 1.13 ± 0.16 | 1.12 ± 0.18 | 1.16 ± 0.14 | 1.07 ± 0.05 | 1.03 ± 0.019 | 1.03 ± 0.11 | 0.797 ± 0.044 | 0.755 ± 0.051 | 0.652 ± 0.079 | 0.438 ± 0.04 | 0.323 ± 0.019
8 | C33A CERVIX | 0.753 ± 0.12 | 0.696 ± 0.036 | 0.941 ± 0.021 | 0.885 ± 0.076 | 0.862 ± 0.071 | 0.919 ± 0.019 | 0.702 ± 0.0072 | 0.676 ± 0.068 | 0.995 ± 0.028 | 0.968 ± 0.019 | 0.744 ± 0.079 | 0.655 ± 0.046 | 0.422 ± 0.035 | 0.332 ± 0.051 | 0.19 ± 0.015 | 0.172 ± 0.023
9 | CADOES1 SOFT TISSUE | 0.946 ± 0.15 | 0.895 ± 0.081 | 0.994 ± 0.054 | 0.914 ± 0.15 | 0.858 ± 0.16 | 0.877 ± 0.034 | 0.976 ± 0.056 | 0.878 ± 0.17 | 0.979 ± 0.076 | 0.942 ± 0.05 | 0.745 ± 0.18 | 0.653 ± 0.094 | 0.378 ± 0.054 | 0.29 ± 0.027 | 0.135 ± 0.033 | 0.073 ± 0.013
10 | CAL51 BREAST | 1.01 ± 0.08 | 0.953 ± 0.025 | 1.04 ± 0.041 | 0.954 ± 0.062 | 1.06 ± 0.056 | 1.07 ± 0.022 | 0.944 ± 0.091 | 0.89 ± 0.015 | 0.941 ± 0.037 | 0.807 ± 0.065 | 0.548 ± 0.014 | 0.389 ± 0.021 | 0.219 ± 0.026 | 0.146 ± 0.027 | 0.0603 ± 0.01 | 0.0523 ± 0.0019
11 | CAL72 BONE | 1.03 ± 0.082 | 1.03 ± 0.093 | 1.07 ± 0.11 | 1.06 ± 0.079 | 1.09 ± 0.095 | 1.14 ± 0.019 | 1.11 ± 0.12 | 1.08 ± 0.11 | 1.08 ± 0.13 | 1.07 ± 0.027 | 1.07 ± 0.018 | 1.09 ± 0.09 | 1.07 ± 0.082 | 0.973 ± 0.22 | 0.776 ± 0.19 | 0.509 ± 0.21
12 | CAL120 BREAST | 0.918 ± 0.082 | 0.924 ± 0.054 | 0.941 ± 0.056 | 0.921 ± 0.051 | 0.968 ± 0.052 | 0.923 ± 0.019 | 0.893 ± 0.045 | 0.886 ± 0.026 | 0.968 ± 0.033 | 0.915 ± 0.067 | 0.798 ± 0.05 | 0.676 ± 0.035 | 0.591 ± 0.014 | 0.506 ± 0.062 | 0.43 ± 0.021 | 0.425 ± 0.035
13 | CASKI CERVIX | 0.969 ± 0.021 | 0.914 ± 0.05 | 0.942 ± 0.021 | 0.907 ± 0.063 | 0.959 ± 0.031 | 0.907 ± 0.021 | 0.953 ± 0.038 | 0.768 ± 0.027 | 0.942 ± 0.03 | 0.888 ± 0.063 | 0.9 ± 0.036 | 0.88 ± 0.06 | 0.858 ± 0.054 | 0.821 ± 0.068 | 0.594 ± 0.0084 | 0.502 ± 0.02
14 | CHLA90 AUTONOMIC GANGLIA | 0.917 ± 0.024 | 0.936 ± 0.052 | 0.9 ± 0.065 | 0.863 ± 0.016 | 0.913 ± 0.023 | 0.907 ± 0.072 | 0.868 ± 0.11 | 0.856 ± 0.097 | 0.939 ± 0.01 | 0.982 ± 0.068 | 0.906 ± 0.051 | 0.897 ± 0.045 | 0.938 ± 0.086 | 0.906 ± 0.083 | 0.814 ± 0.04 | 0.714 ± 0.026
15 | CME SYNOVIAL | 1.23 ± 0.11 | 1.24 ± 0.16 | 1.24 ± 0.11 | 1.21 ± 0.042 | 1.2 ± 0.046 | 1.19 ± 0.15 | 1.1 ± 0.071 | 1.01 ± 0.12 | 0.831 ± 0.068 | 0.528 ± 0.039 | 0.234 ± 0.018 | 0.211 ± 0.035 | 0.243 ± 0.024 | 0.211 ± 0.012 | 0.201 ± 0.0059 | 0.285 ± 0.0076
16 | COLO320DM LARGE INTESTINE | 1.08 ± 0.12 | 1.07 ± 0.13 | 1.04 ± 0.13 | 1.11 ± 0.08 | 1.18 ± 0.069 | 1.23 ± 0.093 | 1.16 ± 0.049 | 1.04 ± 0.099 | 1.16 ± 0.049 | 1.1 ± 0.11 | 1.01 ± 0.038 | 0.951 ± 0.04 | 0.781 ± 0.061 | 0.704 ± 0.059 | 0.606 ± 0.0097 | 0.5533 ± 0.0029
